Reference: patent US7320979B2, “N-[(piperazinyl)hetaryl]arylsulfonamide compounds” (Abbott GmbH & Co. KG., priority 2003, dated 2008)

Assays:
[1] = molecular target: T1, human dopamine D3 receptors (Homo sapiens, UniProt P35462); assay: Dopamine D3 receptor binding, displacement of [125I]-iodosulpride; conditions: membranes of HEK-293 cells stably expressing human D3 receptors; 0.1 nM [125I]-iodosulpride; 25° C., 60 minutes
T1 construct: expressed in transfected cells; host or cells: HEK-293
Description: (§1) The substance to be tested was either dissolved in methanol/Chremophor® (BASF-AG) or in dimethyl sulfoxide and then diluted with water to the desired concentration.
(§2) Each assay mixture was run in triplicate.
The incubation buffer contained 50 mM tris, 120 mM NaCl, 5 mM KCl, 2 mM CaCl2, 2 mM MgCl2 and 0.1% bovine serum albumin, 10 μM […] and 0.1% ascorbic acid (prepared fresh daily). The buffer was adjusted to pH 7.4 with HCl.
(§3) After having been incubated at 25° C. for 60 minutes, the assay mixtures were filtered through a Whatman GF/B glass fiber filter under vacuum using a cell collecting device. The filters were transferred to scintillation viols using a filter transfer system. After 4 ml of Ultima Gold® (Packard) have been added, the samples were shaken for one hour and the radioactivity was then counted in a Beta-Counter (Packard, Tricarb 2000 or 2200CA). The cpm values were converted into dpm using a standard quench series and the program belonging to the instrument.
(§4) The inhibition curves were analyzed by means of iterative nonlinear regression analysis using the Statistical Analysis System (SAS) which is similar to the “LIGAND” program described by Munson and Rodbard.

[2] = molecular target: T2, human dopamine D2L receptors (long isoform) (Homo sapiens, UniProt P14416); assay: Dopamine D2L receptor binding, displacement of [125I] iodospiperone; conditions: footnote: ratio of the Ki values of the D3 and D2L binding tests
T2 construct: expressed in transfected cells; host or cells: HEK-293
T2 sequence (P14416 whole entry, canonical isoform): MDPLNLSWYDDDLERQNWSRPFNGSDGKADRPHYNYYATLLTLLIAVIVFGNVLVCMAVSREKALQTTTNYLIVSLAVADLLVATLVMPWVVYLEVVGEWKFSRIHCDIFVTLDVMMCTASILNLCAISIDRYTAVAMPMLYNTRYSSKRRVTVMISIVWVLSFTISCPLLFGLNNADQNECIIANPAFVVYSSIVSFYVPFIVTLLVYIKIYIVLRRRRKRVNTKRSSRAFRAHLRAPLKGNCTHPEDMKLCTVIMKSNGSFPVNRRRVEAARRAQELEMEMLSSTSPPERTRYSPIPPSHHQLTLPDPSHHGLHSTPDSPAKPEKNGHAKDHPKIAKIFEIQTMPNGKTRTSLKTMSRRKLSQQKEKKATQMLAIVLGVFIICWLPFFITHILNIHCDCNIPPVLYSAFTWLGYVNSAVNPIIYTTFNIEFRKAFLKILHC
Description: as §1, §2
The incubation buffer contained 50 mM tris, 120 mM NaCl, 5 mM KCl, 2 mM CaCl2, 2 mM MgCl2 and 0.1% bovine serum albumin. The buffer was adjusted to pH 7.4 with HCl.
as §3, §4

T1 sequence (P35462 whole entry): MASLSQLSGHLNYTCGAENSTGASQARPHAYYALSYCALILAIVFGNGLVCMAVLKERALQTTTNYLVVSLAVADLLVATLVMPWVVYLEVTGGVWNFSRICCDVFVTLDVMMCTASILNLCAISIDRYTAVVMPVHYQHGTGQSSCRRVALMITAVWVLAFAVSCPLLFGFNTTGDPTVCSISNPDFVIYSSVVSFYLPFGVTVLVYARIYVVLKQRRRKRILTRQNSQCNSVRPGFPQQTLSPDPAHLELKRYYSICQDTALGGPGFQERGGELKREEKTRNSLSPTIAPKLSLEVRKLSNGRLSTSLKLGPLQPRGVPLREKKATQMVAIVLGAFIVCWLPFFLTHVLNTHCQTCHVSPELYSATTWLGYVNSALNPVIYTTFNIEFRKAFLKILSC

CCCN1CCN(c2ccc(NS(=O)(=O)c3ccc(CC)cc3)cn2)C[C@@H]1C.Cl [Example 46, 4-Ethyl-N-[6-((S)-3-methyl-4-propyl-piperazin-1-yl)-pyridin-3-yl]-benzenesulfonamide, hydrochloride]
Ki [1]: 7.1 nM | Selectivity vs. D2L [2]: 50

C=Cc1ccc(S(=O)(=O)Nc2ccc(N3CCN(CCC)[C@@H](C)C3)nc2)cc1.Cl [Example 47, N-[6-((S)-3-methyl-4-propyl-piperazin-1-yl)-pyridin-3-yl]-4-vinylbenzenesulfonamide, hydrochloride]
Ki [1]: 6.1 nM | Selectivity vs. D2L [2]: 118

C=CCN1CCN(c2ccc(NS(=O)(=O)c3ccc(C(C)C)cc3)c(OC)n2)C[C@@H]1C.Cl [Example 48, N-[6-((S)-4-Allyl-3-methyl-piperazin-1-yl)-2-methoxy-pyridin-3-yl]-4-isopropylbenzenesulfonamide, hydrochloride]
Ki [1]: 0.8 nM | Selectivity vs. D2L [2]: 21

CCCN1CCN(c2ccc(NS(=O)(=O)c3ccc(C(C)C)cc3)c(OC)n2)C[C@@H]1C.Cl [Example 49, 4-Isopropyl-N-[2-methoxy-6-((S)-3-methyl-4-propyl-piperazin-1-yl)-pyridin-3-yl]-benzenesulfonamide, hydrochloride]
Ki [1]: 0.4 nM | Selectivity vs. D2L [2]: 19

C=CCN1CCN(c2ccc(NS(=O)(=O)c3ccc(C(C)C)cc3)cn2)C[C@@H]1CC.Cl [Example 50, N-[6-((S)-4-Allyl-3-ethyl-piperazin-1-yl)-pyridin-3-yl]-4-isopropylbenzenesulfonamide, hydrochloride]
Ki [1]: 9.9 nM | Selectivity vs. D2L [2]: 57

CCCN1CCN(c2ccc(NS(=O)(=O)c3ccc(C(C)C)cc3)cn2)C[C@@H]1CC.Cl [Example 51, N-[6-((S)-3-Ethyl-4-propyl-piperazin-1-yl)-pyridin-3-yl]-4-isopropylbenzenesulfonamide, hydrochloride]
Ki [1]: 3.1 nM | Selectivity vs. D2L [2]: 101

CC(C)c1ccc(S(=O)(=O)Nc2cnc(N3CCNCC3)nc2)cc1 [Example 52, 4-Isopropyl-N-(2-piperazin-1-yl-pyrimidin-5-yl)-benzenesulfonamide]
Ki [1]: 14.2 nM | Selectivity vs. D2L [2]: 63

CCN1CCN(c2ncc(NS(=O)(=O)c3ccc(C(C)C)cc3)cn2)CC1.Cl [Example 53, N-[2-(4-Ethyl-piperazin-1-yl)-pyrimidin-5-yl]-4-isopropylbenzenesulfonamide, hydrochloride]
Ki [1]: 8.8 nM | Selectivity vs. D2L [2]: 149

CCN1CCN(c2ncc(NS(=O)(=O)c3ccc(C(C)C)cc3)cn2)C[C@@H]1C.Cl [Example 54, N-[2-((S)-4-Ethyl-3-methyl-piperazin-1-yl)-pyrimidin-5-yl]-4-isopropylbenzenesulfonamide, hydrochloride]
Ki [1]: 2.3 nM | Selectivity vs. D2L [2]: 84

C=CCN1CCN(c2ncc(NS(=O)(=O)c3ccc(C(C)C)cc3)cn2)C[C@@H]1C.Cl [Example 55, N-[2-((S)-4-Allyl-3-methyl-piperazin-1-yl)-pyrimidin-5-yl]-4-isopropyl-benzenesulfonamide, hydrochloride]
Ki [1]: 2.9 nM | Selectivity vs. D2L [2]: 159

CCCN1CCN(c2ncc(NS(=O)(=O)c3ccc(C(C)C)cc3)cn2)C[C@@H]1C.Cl [Example 56, 4-Isopropyl-N-[2-((S)-3-methyl-4-propyl-piperazin-1-yl)-pyrimidin-5-yl]-benzenesulfonamide, hydrochloride]
Ki [1]: 1.6 nM | Selectivity vs. D2L [2]: 399

CCCN1CCN(c2ncc(NS(=O)(=O)c3ccc(CC)cc3)cn2)C[C@@H]1C.Cl [Example 57, 4-Ethyl-N-[2-((S)-3-methyl-4-propyl-piperazin-1-yl)-pyrimidin-5-yl]-benzenesulfonamide, hydrochloride]
Ki [1]: 7.3 nM | Selectivity vs. D2L [2]: 234

C=Cc1ccc(S(=O)(=O)Nc2cnc(N3CCN(CCC)[C@@H](C)C3)nc2)cc1.Cl [Example 58, N-[2-((S)-3-Methyl-4-propyl-piperazin-1-yl)-pyrimidin-5-yl]-4-vinylbenzenesulfonamide, hydrochloride]
Ki [1]: 6.2 nM | Selectivity vs. D2L [2]: 254

C=CCN1CCN(c2ccc(OS(=O)(=O)c3ccc(C(C)C)cc3)cn2)CC1 [Example 59, 4-Isopropyl-benzenesulfonic acid 6-(4-allyl-piperazin-1-yl)-pyridin-3-yl ester]
Ki [1]: 16.2 nM | Selectivity vs. D2L [2]: 75

CCCN1CCN(c2ccc(OS(=O)(=O)c3ccc(C(C)C)cc3)cn2)CC1.Cl [Example 60, 4-Isopropyl-benzenesulfonic acid 6-(4-propyl-piperazin-1-yl)-pyridin-3-yl ester, hydrochloride]
Ki [1]: 17.4 nM | Selectivity vs. D2L [2]: 47

N-[2-(4-Allylpiperazin-1-yl)pyridin-5-yl]-4-(N-pyrrolidinyl)benzenesulfonamide fumarate [Example 42]
Ki [1]: 5.3 nM | Selectivity vs. D2L [2]: 33
